Test results: patent US12084437B2, “Halo-substituted piperidines as orexin receptor modulators” (AstraZeneca AB, priority 2016, dated 2024)

Experiments:
[1] = target: T1, OX1 (Homo sapiens, UniProt O43613); assay: Orexin receptor cell-based functional assay, [Ca2+]i by FLIPR, CHO-OX1 cells; conditions: FLIPR calcium, antagonism of EC90 of [OX], read-out: OXI, IC50
T1 construct: expressed in transfected cells; host or cells: CHO (CHO-OX1)
T1 sequence (O43613 1-425): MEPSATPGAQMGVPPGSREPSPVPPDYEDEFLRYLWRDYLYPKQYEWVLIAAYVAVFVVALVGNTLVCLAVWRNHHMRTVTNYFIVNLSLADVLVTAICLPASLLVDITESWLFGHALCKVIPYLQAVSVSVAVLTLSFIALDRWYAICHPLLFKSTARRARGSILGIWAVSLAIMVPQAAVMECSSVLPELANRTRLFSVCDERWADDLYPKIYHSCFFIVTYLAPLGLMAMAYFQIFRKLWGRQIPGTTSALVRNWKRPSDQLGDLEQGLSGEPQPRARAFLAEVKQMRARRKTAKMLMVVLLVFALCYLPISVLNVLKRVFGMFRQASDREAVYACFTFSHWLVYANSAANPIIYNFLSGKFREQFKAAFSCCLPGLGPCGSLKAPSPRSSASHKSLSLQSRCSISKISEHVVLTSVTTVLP

[2] = target: T2, OX2 (Homo sapiens, UniProt O43614); assay: Orexin receptor cell-based functional assay, [Ca2+]i by FLIPR, CHO-OX2 cells; conditions: FLIPR calcium, antagonism of EC90 of [OX]
T2 construct: expressed in transfected cells; host or cells: CHO (CHO-OX2)
T2 sequence (O43614 1-444): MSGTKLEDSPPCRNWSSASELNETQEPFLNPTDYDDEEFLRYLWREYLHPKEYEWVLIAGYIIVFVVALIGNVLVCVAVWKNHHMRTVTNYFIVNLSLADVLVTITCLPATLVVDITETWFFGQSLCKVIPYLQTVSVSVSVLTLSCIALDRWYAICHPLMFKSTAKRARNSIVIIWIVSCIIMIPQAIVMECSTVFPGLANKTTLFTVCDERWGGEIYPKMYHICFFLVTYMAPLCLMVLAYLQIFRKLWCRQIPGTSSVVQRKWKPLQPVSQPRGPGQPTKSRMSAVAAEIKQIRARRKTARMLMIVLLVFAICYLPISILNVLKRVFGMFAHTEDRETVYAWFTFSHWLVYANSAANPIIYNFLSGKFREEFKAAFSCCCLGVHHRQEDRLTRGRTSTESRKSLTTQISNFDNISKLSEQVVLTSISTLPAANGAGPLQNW
Summary of the method: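 CHO cells expressing human OX1 or OX2 (20,000/well, grown overnight) were loaded with Calcium6 dye plus 2.5 mM probenecid for 2 h at 37 °C, then preincubated 30 min with compound (0.1 nM–10 µM). FLIPR fluorescence (ex 488/em 540 nm) was tracked before and after an EC90 orexin challenge.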

Structure (SMILES) | IC50 [1] | IC50 [2]
C[C@@H]1CC(F)(F)CN(C(=O)c2nn(C)cc2-c2ccc(Cl)cc2)[C@@H]1CNc1cnc(C(F)(F)F)cn1 [Compound 129, (4-(4-chlorophenyl)-1-methyl-1H-pyrazol-3-yl)((2S,3R)-5,5-difluoro-3-methyl-2-(((5-(trifluoromethyl)pyrazin-2-yl)amino)methyl)piperidin-1-yl)methanone] | 4 nM | 3500 nM
Cc1nc(C(=O)N2CC(F)(F)C[C@@H](C)[C@H]2CNc2ccc(C(F)(F)F)cn2)c(-c2ccc(F)cc2)s1 [Compound 185, ((2S,3R)-5,5-difluoro-3-methyl-2-(((5-(trifluoromethyl)pyridin-2-yl)amino)methyl)piperidin-1-yl)(5-(4-fluorophenyl)-2-methylthiazol-4-yl)methanone] | 2 nM | > 5000 nM
